Each compound was assayed against T1, recombinant human mGluR2 (Homo sapiens, UniProt Q14416) (assay: FLIPR Ca2+ mobilization assay, mGluR2 potentiation). Settings: CHO dhfr- cells expressing human mGluR2 and Gα16, EC20 concentration of glutamate (900 nM).
T1 construct: expressed in transfected cells
Assay type: cell-based
Procedure: Potencies are determined as follows. The compounds of the present invention may be tested in a fluorescence laser imaging plate reader (FLIPR) based assay. This assay is a common functional assay to monitor Ca^2+ mobilization in whole cells expressing recombinant receptor coupled with a promiscuous G-protein. CHO dhfr-cells stably expressing recombinant human mGluR2 and Gα16 loaded with Fluo-4 AM (Invitrogen, Carlsbad Calif.) are treated with varying concentrations of compounds and the Ca^2+ response is monitored on a FLIPR384 (Molecular Devices, Sunnydale Calif.) for agonist activity. The potentiation response is monitored after a subsequent addition of an EC20 concentration of glutamate (900 nM). The maximum calcium response at each concentration of compound for agonism or potentiation are plotted as dose responses curves fitted with a four parameters logistic equation giving EC50 and Hill coefficient using the iterative non linear curve fitting software program.

T1 sequence (Q14416 19-872): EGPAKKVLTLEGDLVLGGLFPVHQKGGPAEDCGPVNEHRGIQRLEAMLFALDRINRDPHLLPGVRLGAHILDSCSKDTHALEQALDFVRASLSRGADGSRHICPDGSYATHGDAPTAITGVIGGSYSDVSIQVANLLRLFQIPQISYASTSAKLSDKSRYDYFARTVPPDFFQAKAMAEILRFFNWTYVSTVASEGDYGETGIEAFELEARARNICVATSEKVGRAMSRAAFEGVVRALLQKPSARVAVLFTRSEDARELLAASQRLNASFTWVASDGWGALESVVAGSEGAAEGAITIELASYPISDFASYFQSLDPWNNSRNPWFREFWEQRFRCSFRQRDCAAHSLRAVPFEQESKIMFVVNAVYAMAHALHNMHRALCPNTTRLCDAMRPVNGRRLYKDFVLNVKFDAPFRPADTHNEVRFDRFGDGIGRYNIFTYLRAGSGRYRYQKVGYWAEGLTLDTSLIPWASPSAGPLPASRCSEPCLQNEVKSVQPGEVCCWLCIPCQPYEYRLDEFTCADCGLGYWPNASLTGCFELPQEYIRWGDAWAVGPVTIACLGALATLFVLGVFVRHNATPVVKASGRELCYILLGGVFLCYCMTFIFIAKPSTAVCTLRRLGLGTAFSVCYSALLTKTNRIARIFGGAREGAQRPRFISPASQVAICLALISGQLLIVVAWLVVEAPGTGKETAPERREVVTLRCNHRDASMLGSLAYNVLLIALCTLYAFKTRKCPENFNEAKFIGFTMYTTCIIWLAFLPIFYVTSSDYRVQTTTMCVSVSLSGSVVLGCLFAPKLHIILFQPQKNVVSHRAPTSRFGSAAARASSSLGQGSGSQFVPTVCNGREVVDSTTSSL

Row | SMILES | EC50
1 | CC(C)(C)Cn1nnc2c(Br)c(C#CC3CCN(C(=O)OC(C)(C)C)CC3)ccc21 [Example 1, tert-Butyl 4-{[4-bromo-1-(2,2-dimethylpropyl)-1H-benzotriazol-5-yl]ethynyl}piperidine-1-carboxylate] | 100 nM
2 | CC(C)(C)Cn1nnc2c(Br)c(C#CC3CCNCC3)ccc21 [Example 2, 4-bromo-1-(2,2-dimethylpropyl)-5-(piperidin-4-ylethynyl)-1H-benzotriazole] | 2710 nM
3 | CC(C)(C)OC(=O)N1CCC(F)(C#Cc2ccc3c(nnn3CC3CC3)c2Br)CC1 [Example 3] | 414 nM
4 | FC1(C#Cc2ccc3c(nnn3CC3CC3)c2Br)CCNCC1 [Example 4, 4-bromo-1-(cyclopropylmethyl)-5-[(4-fluoropiperidin-4-yl)ethynyl]-1H-benzotriazole] | 1220 nM
5 | CC(C)(C)Cn1nnc2c(Br)c(C#CC3CCN(CC(F)(F)F)CC3)ccc21 [Example 5, 4-bromo-1-(2,2-dimethylpropyl)-5-{[1-(2,2,2-trifluoroethyl)piperidin-4-yl]ethynyl}-1H-benzotriazole] | 123 nM
6 | Cc1ccncc1C#Cc1ccc2c(nnn2CC2CC2)c1Cl [Example 6, 4-Chloro-1-(cyclopropylmethyl)-5-[(4-methylpyridin-3-yl)ethynyl]-1H-benzotriazole] | 50 nM
7 | Clc1c(C#Cc2cccnc2)ccc2c1nnn2CC1CC1 [Example 7, 4-chloro-1-(cyclopropylmethyl)-5-(pyridin-3-ylethynyl)-1H-benzotriazole] | 34 nM
8 | Clc1c(C#Cc2ccncc2)ccc2c1nnn2CC1CC1 [Example 8, 4-chloro-1-(cyclopropylmethyl)-5-(pyridin-4-ylethynyl)-1H-benzotriazole] | 64 nM
9 | Clc1c(C#Cc2ccccn2)ccc2c1nnn2CC1CC1 [Example 9, 4-chloro-1-(cyclopropylmethyl)-5-(pyridin-2-ylethynyl)-1H-benzotriazole] | 85 nM
10 | Clc1c(C#Cc2cnccn2)ccc2c1nnn2CC1CC1 [Example 10, 4-chloro-1-(cyclopropylmethyl)-5-(pyrazin-2-ylethynyl)-1H-benzotriazole] | 80 nM
11 | Clc1c(C#Cc2ccnnc2)ccc2c1nnn2CC1CC1 [Example 11, 4-chloro-1-(cyclopropylmethyl)-5-(pyridazin-4-ylethynyl)-1H-benzotriazole] | 203 nM
12 | OCCC#Cc1ccc2c(nnn2CC2CC2)c1Cl [Example 12, 4-[4-chloro-1-(cyclopropylmethyl)-1H-benzotriazol-5-yl]but-3-yn-1-ol] | 388 nM
13 | OCC#Cc1ccc2c(nnn2CC2CC2)c1Cl [Example 13, 3-[4-chloro-1-(cyclopropylmethyl)-1H-benzotriazol-5-yl]prop-2-yn-1-ol] | 576 nM
14 | OCCCC#Cc1ccc2c(nnn2CC2CC2)c1Cl [Example 14, 5-[4-chloro-1-(cyclopropylmethyl)-1H-benzotriazol-5-yl]pent-4-yn-1-ol] | 180 nM
15 | O=Cc1cncc(C#Cc2ccc3c(nnn3CC3CC3)c2Cl)c1 [Example 15, 5-{[4-chloro-1-(cyclopropylmethyl)-1H-benzotriazol-5-yl]ethynyl}pyridine-3-carbaldehyde] | 56 nM
16 | Cc1ncccc1C#Cc1ccc2c(nnn2CC2CC2)c1Cl [Example 16, 4-chloro-1-(cyclopropylmethyl)-5-[(2-methylpyridin-3-yl)ethynyl]-1H-benzotriazole] | 50 nM
17 | Cc1ccc(C#Cc2ccc3c(nnn3CC3CC3)c2Cl)cn1 [Example 17, 4-chloro-1-(cyclopropylmethyl)-5-[(6-methylpyridin-3-yl)ethynyl]-1H-benzotriazole] | 140 nM
18 | Cc1cncc(C#Cc2ccc3c(nnn3CC3CC3)c2Cl)c1 [Example 18, 4-chloro-1-(cyclopropylmethyl)-5-[(5-methylpyridin-3-yl)ethynyl]-1H-benzotriazole] | 57 nM

Row | SMILES | EC50
19 | Clc1cncc(C#Cc2ccc3c(nnn3CC3CC3)c2Cl)c1 [Example 19, 4-chloro-5-[(5-chloropyridin-3-yl)ethynyl]-1-(cyclopropylmethyl)-1H-benzotriazole] | 292 nM
20 | COc1cncc(C#Cc2ccc3c(nnn3CC3CC3)c2Cl)c1 [Example 20, 4-chloro-1-(cyclopropylmethyl)-5-[(5-methoxypyridin-3-yl)ethynyl]-1H-benzotriazole] | 50 nM
21 | Fc1cncc(C#Cc2ccc3c(nnn3CC3CC3)c2Cl)c1 [Example 21, 4-chloro-1-(cyclopropylmethyl)-5-[(5-fluoropyridin-3-yl)ethynyl]-1H-benzotriazole] | 76 nM
22 | OCc1cncc(C#Cc2ccc3c(nnn3CC3CC3)c2Cl)c1 [Example 22, (5-{[4-chloro-1-(cyclopropylmethyl)-1H-benzotriazol-5-yl]ethynyl}pyridin-3-yl)methanol] | 57 nM
23 | Nc1cncc(C#Cc2ccc3c(nnn3CC3CC3)c2Cl)c1 [Example 23, 5-{[4-chloro-1-(cyclopropylmethyl)-1H-benzotriazol-5-yl]ethynyl}pyridin-3-amine] | 98 nM
24 | NC(=O)c1cncc(C#Cc2ccc3c(nnn3CC3CC3)c2Cl)c1 [Example 24, 5-{[4-chloro-1-(cyclopropylmethyl)-1H-benzotriazol-5-yl]ethynyl}pyridine-3-carboxamide] | 42 nM
25 | Fc1cc(C#Cc2ccc3c(nnn3CC3CC3)c2Cl)ccn1 [Example 25, 4-chloro-1-(cyclopropylmethyl)-5-[(2-fluoropyridin-4-yl)ethynyl]-1H-benzotriazole] | 77 nM
26 | Clc1cc(C#Cc2ccc3c(nnn3CC3CC3)c2Cl)ccn1 [Example 26, 4-chloro-5-[(2-chloropyridin-4-yl)ethynyl]-1-(cyclopropylmethyl)-1H-benzotriazole] | 299 nM
27 | Cc1cc(C#Cc2ccc3c(nnn3CC3CC3)c2Cl)ccn1 [Example 27, 4-chloro-1-(cyclopropylmethyl)-5-[(2-methylpyridin-4-yl)ethynyl]-1H-benzotriazole] | 43 nM
28 | COc1cc(C#Cc2ccc3c(nnn3CC3CC3)c2Cl)ccn1 [Example 28, 4-chloro-1-(cyclopropylmethyl)-5-[(2-methoxypyridin-4-yl)ethynyl]-1H-benzotriazole] | 227 nM
29 | Nc1cc(C#Cc2ccc3c(nnn3CC3CC3)c2Cl)ccn1 [Example 29, 4-{[4-chloro-1-(cyclopropylmethyl)-1H-benzotriazol-5-yl]ethynyl}pyridin-2-amine] | 31 nM
30 | CN1C(=O)CN(CC#Cc2ccc3c(nnn3CC3CC3)c2Cl)C1=O [Example 30, 1-{3-[4-Chloro-1-(cyclopropylmethyl)-1H-benzotriazol-5-yl]prop-2-yn-1-yl}-3-methylimidazolidine-2,4-dione] | 415 nM
31 | C=CC#Cc1ccc2c(nnn2CC2CC2)c1Cl [Example 31, 5-but-3-en-1-yn-1-yl-4-chloro-1-(cyclopropylmethyl)-1H-benzotriazole] | 282 nM
32 | CN1C(=O)CN(CCCC#Cc2ccc3c(nnn3CC3CC3)c2Cl)C1=O [Example 32, 1-{5-[4-chloro-1-(cyclopropylmethyl)-1H-benzotriazol-5-yl]pent-4-yn-1-yl}-3-methylimidazolidine-2,4-dione] | 153 nM
33 | FC(F)(F)c1c(C#Cc2cccnc2)ccc2c1nnn2CC1CC1 [Example 33, 1-(Cyclopropylmethyl)-5-(pyridin-3-ylethynyl)-4-(trifluoromethyl)-1H-benzotriazole] | 4.8 nM
34 | FC(F)(F)c1c(C#Cc2ccccc2)ccc2c1nnn2CC1CC1 [Example 34, 1-(cyclopropylmethyl)-5-(phenylethynyl)-4-(trifluoromethyl)-1H-benzotriazole] | 34 nM
35 | FC(F)(F)c1c(C#Cc2ccncc2)ccc2c1nnn2CC1CC1 [Example 35, 1-(cyclopropylmethyl)-5-(pyridin-4-ylethynyl)-4-(trifluoromethyl)-1H-benzotriazole] | 12 nM

Reference: patent US8772276B2, “Alkyne benzotriazole derivatives” (Merck Sharp & Dohme Corp., priority 2011, dated 2014)
